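Results reflect a 48-hour exposure of cells in 96-well plates to compound at five concentrations. TGI: total growth inhibition.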

Some test systems named below: CCRF-CEM leukemia; MOLT-4 leukemia; KM12 colon; SF-268 CNS; HCC-2998 colon; UO-31 renal; SF-539 CNS; COLO 205 colon; KM20L2 colon; MALME-3M melanoma; OVCAR-8 ovarian; HL-60(TB) leukemia; SK-MEL-5 melanoma; A498 renal; TK-10 renal; IGROV1 ovarian; ACHN renal; EKVX NSCLC; HS 578T breast; MDA-MB-231 breast.
Assay in all cases: growth of human tumour cells (NCI), 48 h

Consider `CCN(CC)c1cccc2c1C1(O)CCC3(CC21)OCCCCO3` (stereo not drawn), for which the TGI in the assay on CCRF-CEM leukemia, with MOLT-4 leukemia, in the assay on KM12 colon, in the assay with SF-268 CNS, in the assay on HCC-2998 colon and in the assay with UO-31 renal was above 100 µM throughout. Besides, the TGI in the assay on SF-539 CNS, in the assay on COLO 205 colon, in the assay with KM20L2 colon, with MALME-3M melanoma, in the assay with OVCAR-8 ovarian and in the assay with HL-60(TB) leukemia was above 100 µM each time. The TGI with SK-MEL-5 melanoma, with A498 renal, with TK-10 renal, in the assay with IGROV1 ovarian and with ACHN renal was above 100 µM each time.

With `CC1=NN(C(=O)c2ccc(Cl)cc2)C(=O)/C1=C/c1ccc(O)cc1`, the TGI in the assay on CCRF-CEM leukemia, in the assay on MOLT-4 leukemia, in the assay on KM12 colon, with SF-268 CNS, with HCC-2998 colon and in the assay with UO-31 renal was above 100 µM each time. In addition, the TGI in the assay with SF-539 CNS, in the assay with COLO 205 colon, with KM20L2 colon, in the assay with MALME-3M melanoma, with EKVX NSCLC and in the assay with OVCAR-8 ovarian was above 100 µM throughout. The TGI in the assay with HL-60(TB) leukemia, with SK-MEL-5 melanoma, in the assay with A498 renal, in the assay with TK-10 renal, with IGROV1 ovarian and with ACHN renal was above 100 µM throughout.

As to `CC(C)(c1ccc(OC#N)cc1)c1ccc(OC#N)cc1`, the TGI in the assay on CCRF-CEM leukemia was above 73.7 µM; with MOLT-4 leukemia, above 100 µM; with KM12 colon, above 100 µM; in the assay on SF-268 CNS it was above 100 µM; with HCC-2998 colon it was above 100 µM; with UO-31 renal it was above 100 µM. Moreover, the TGI is above 100 µM in the assay with SF-539 CNS; above 67.7 µM with COLO 205 colon; above 100 µM in the assay on KM20L2 colon; above 100 µM in the assay with MALME-3M melanoma; above 100 µM in the assay on EKVX NSCLC; above 100 µM with OVCAR-8 ovarian. In addition, the TGI with HL-60(TB) leukemia was above 77.7 µM; in the assay on SK-MEL-5 melanoma, above 100 µM; in the assay on A498 renal, above 100 µM; in the assay with TK-10 renal it was above 100 µM; with IGROV1 ovarian, above 100 µM; in the assay on ACHN renal, above 100 µM.

Regarding `CC(=O)N1C2=CCCC2(C)c2ccccc21` (stereo not drawn), the TGI was above 100 µM in the assay with CCRF-CEM leukemia; above 100 µM in the assay with MOLT-4 leukemia; above 100 µM with KM12 colon; above 100 µM in the assay on SF-268 CNS; 99.7 µM in the assay on HCC-2998 colon; above 100 µM in the assay on HS 578T breast. Further, the TGI with UO-31 renal, in the assay on SF-539 CNS, in the assay with COLO 205 colon, in the assay on MDA-MB-231 breast, with MALME-3M melanoma and with EKVX NSCLC was above 100 µM throughout. In addition, the TGI with OVCAR-8 ovarian is above 100 µM; with HL-60(TB) leukemia it was 83.6 µM; in the assay on SK-MEL-5 melanoma it was above 100 µM; in the assay with A498 renal it was above 100 µM; in the assay on TK-10 renal it was above 100 µM; in the assay with IGROV1 ovarian, above 100 µM. This compound showed a TGI in the assay on ACHN renal above 100 µM.

Regarding `Cc1nn(C(=O)Cc2ccccc2)c2c1C(c1ccccc1[N+](=O)[O-])SC(N)=N2` (stereo not drawn), the TGI with CCRF-CEM leukemia, in the assay with MOLT-4 leukemia, with KM12 colon, in the assay with SF-268 CNS, with HCC-2998 colon and in the assay with HS 578T breast was above 100 µM throughout. The TGI in the assay with UO-31 renal, with SF-539 CNS, in the assay on COLO 205 colon, with MDA-MB-231 breast, in the assay on MALME-3M melanoma and in the assay on EKVX NSCLC was above 100 µM in each case. Besides, the TGI with OVCAR-8 ovarian, in the assay on HL-60(TB) leukemia, in the assay with SK-MEL-5 melanoma, with A498 renal, in the assay on TK-10 renal and with IGROV1 ovarian was above 100 µM throughout. Moreover, the TGI in the assay with ACHN renal was above 100 µM.

As to `O/N=C1\CCc2cc3c(cc21)CCC3`, the TGI in the assay with CCRF-CEM leukemia, with MOLT-4 leukemia, in the assay with KM12 colon, in the assay with SF-268 CNS, in the assay on HCC-2998 colon and in the assay with HS 578T breast was above 100 µM each time. For the same compound, the TGI in the assay with UO-31 renal, with SF-539 CNS, with COLO 205 colon, in the assay on MDA-MB-231 breast, with MALME-3M melanoma and in the assay on EKVX NSCLC was above 100 µM in each case. Besides, the TGI in the assay on OVCAR-8 ovarian, in the assay on HL-60(TB) leukemia, with SK-MEL-5 melanoma, in the assay with A498 renal, in the assay on TK-10 renal and with IGROV1 ovarian was above 100 µM throughout. Moreover, the TGI in the assay with ACHN renal is above 100 µM.

In the case of `CCOC(=O)C(=CNC(=S)Nc1c(CC)cccc1CC)C(=O)OCC`, the TGI in the assay with CCRF-CEM leukemia, in the assay with MOLT-4 leukemia, in the assay on KM12 colon, with SF-268 CNS, in the assay on HCC-2998 colon and in the assay on HS 578T breast was above 100 µM throughout. For the same compound, the TGI in the assay on UO-31 renal, in the assay on SF-539 CNS, with COLO 205 colon, with MDA-MB-231 breast, with MALME-3M melanoma and in the assay with EKVX NSCLC was above 100 µM each time. Further, the TGI in the assay on OVCAR-8 ovarian, with HL-60(TB) leukemia, in the assay with SK-MEL-5 melanoma, in the assay on A498 renal, in the assay on TK-10 renal and in the assay with IGROV1 ovarian was above 100 µM in each case. Moreover, the TGI in the assay on ACHN renal was above 100 µM.

`CN1CCN(CCCCN2c3ccccc3Sc3ccc(N=[N+]=[N-])cc32)CC1`: the TGI with CCRF-CEM leukemia was 7.75 µM; in the assay with MOLT-4 leukemia it was 7.24 µM; in the assay on KM12 colon it was 20.8 µM; in the assay on SF-268 CNS it was 28.2 µM; in the assay with HCC-2998 colon, 18.3 µM; with HS 578T breast, 30.7 µM. Moreover, the TGI in the assay on UO-31 renal is 21.8 µM; with SF-539 CNS, 20.4 µM; with COLO 205 colon, 3.51 µM; in the assay on MDA-MB-231 breast it was 15 µM; in the assay with MALME-3M melanoma, 6.39 µM; with EKVX NSCLC it was 29.4 µM. For the same compound, the TGI is 29.8 µM with OVCAR-8 ovarian; 3.69 µM in the assay on HL-60(TB) leukemia; 4.62 µM in the assay with SK-MEL-5 melanoma; 29.9 µM in the assay on A498 renal; 27.9 µM in the assay with TK-10 renal; 23.3 µM in the assay on IGROV1 ovarian. The compound further had a TGI in the assay with ACHN renal of 22.1 µM.
